“Also recorded” adds a separate entry of the source.
How the values were obtained:
[1] = In vivo delivery of single-stranded sRNA by single lipid via gavage (blood, stomach, small intestine, liver); set-up: species or system C57 mice; conditions: 10 μl lipid, 1 nmol each sRNA (PGY-sRNA-23/-26/-32), heating method, 6 hours or 12 hours after administration
Excerpt: Tissues sampled: live/stomach/small intestine.

A549 cell = assay: RT-qPCR detection of nucleic acid delivered by lipid into A549 cells; type: cell-based, human
Procedure: (§1) 3.1 NCI-N87 cell (gastric cancer cell), MRC-5 cell (lung fibroblast), A549 cell (lung cancer cell) were cultured to logarithmic growth phase, and then plated to a six-well plate at cell density of 1×10^6/2 mL medium/well; MRC-5 cell was cultured in Eagle's MEM medium (MEM, Gibco); A549 cell was cultured in Ham's F-12 medium (HyClone); NCI-N87 cell was cultured in RPMI-1640 medium (HyClone); followed by incubation overnight at 37° C., and the follow-up experiments were performed after the cells were attached to the walls.
4) Lipid nucleic acid mixture: the mixture of lipid and HJT-sRNA-m7 prepared from the step 2 were added into cells and mixed, and the final concentration of RNA was kept at 200 nM.
(§2) 3.3 After co-incubation with the small RNA for 3 hours, the cells were washed 2-3 times with PBS. The cells were harvested with TRIzol lysis buffer, and the total RNA was extracted. The abundance of small RNA that entered cells was detected by RT-qPCR, and the localization of RNA was detected by fluorescence in situ hybridization; protocols of each detection method were as follows:
3.3.1 RT-qPCR Detection of Small RNA (Taqman Probe Method)
(§3) 3.3.2 RT-qPCR Detection of Small RNA (SYBR Green Dye Method)
Mixtures of soybean PC, lipid No. 11 (18:0/18:2) and lipid No. 12 (16:0/18:2), and various small RNA (see below Table 3) were prepared by the reverse evaporation method and then added into A549 cell line (the final concentration of sRNA was 200 nM); the negative control group (control) was directly added with the same concentration of sRNA; the positive control group (RNAimax) was transfected with Lipofectamine RNAimax (transfection reagent 6 μl/well). The abundance of sRNA in the cells was detected by Taqman probe after 3 hours, and the relative expression level of sRNA was calculated by 2-ΔCt method.
3.1.3 After co-incubation with cells for 12-24 hours, the cells were washed twice with PBS. The cells were harvested with TRIzol lysis buffer (purchased from Sigma-Aldrich), and total RNA was extracted. The abundance of HJT-sRNA-m7 that entered the cells was detected by RT-qPCR; the protocols were as follows:
4368813) was used to reverse transcribe sRNA to cDNA by stem-loop method (see, e.g. Real-time quantification of microRNAs by stem-loop RT-PCR, Nucleic Acids Res. 2005 Nov. 27; 33(20):e179, incorporated by reference herein).

A549 cells [2] = assay: Flow cytometry detection of the efficiency of nucleic acid delivery by lipid; type: cell-based, human; conditions: boiling method
Procedure: Experimental materials: A549 cells (purchased from the Cell Center of the Chinese Academy of Medical Sciences), FAM-sRNA (purchased from Ribobio Biotechnology Co., Ltd.), lipid No. 41, Accuri® C6 instrument (purchased from BD, USA).
Experimental methods: PGY-sRNA-6-FAM was dissolved in 100 μl water, mixed with 4 μl lipid, and prepared by boiling method. Then the mixture was dropped into A549 cells, and after 6 hours of co-incubation, the samples were collected for detection as follows: firstly wash three times with PBS, then digest with trypsin for 3 minutes and remove trypsin, wash with PBS again and then blow down the cells. The detection was performed using Accuri® C6 instrument.
Experimental Method: PGY-sRNA-6-FAM was dissolved in 100 μl water, and mixed with 4 μl lipid, and prepared into lipid-sRNA mixture by boiling method. Then, the mixture was dropped into A549 cells, and after 6 hours of co-incubation, the samples were collected and washed three times with PBS, then digested with trypsin into single cells, washed with re-suspended with PBS and then blown down for Accuri® C6 instrument detection.
Experimental Method: FAM-sRNA was dissolved in 100 μl water, and mixed with 4 μl lipid, prepared by boiling method. Then, the lipid-sRNA mixture was dropped into A549 cells, and after 6 hours of co-incubation, the samples were collected and washed three times with PBS, then digested into single cells with trypsin, re-suspended with PBS and then blown down for Accuri® C6 instrument detection.

A549 cells [3] = assay: Digital PCR (ddPCR) detection of the efficiency of nucleic acid delivery by lipid; type: cell-based, human
Procedure: (§4) 2.2 Experimental method: the total cellular RNA was collected and extracted by TRIzol lysis buffer according to the above methods, and reverse transcribed to cDNA using High capacity cRNA Reverse Transcription Kit, and the cDNA from different groups was subject to digital PCR reaction. Refering to the QX200 Droplet Reader and QuantaSoft Software manual for the protocols, the results were analyzed using QuantaSoft software.
as §4, with “method:” for “method: the”, “total” for “total cellular”, “method,” for “methods,”, “subjected” for “subject”, “Refer” for “Refering”, “protocols;” for “protocols,”
(§5) 2.2 Experimental method: Total RNA was collected and extracted by TRIzol lysis buffer according to the above method, and reverse transcribed to cDNA using TaqMan™ MicroRNA Reverse Transcription KitHigh, and the cDNA from different groups was subjected to digital PCR reaction. Refer to the QX200 Droplet Reader and QuantaSoft Software manual for the protocols; the results were analyzed using QuantaSoft software.
as §5, with “reversed” for “reverse transcribed”, “High capacity cRNA” for “TaqMan™ MicroRNA”, “Kit,” for “KitHigh,”

MRC-5 cell = assay: RT-qPCR detection of nucleic acid delivered by lipid into MRC-5 cells; type: cell-based
Procedure: as §1, §2, §3
The stem-loop primer used in the reverse transcription process was synthesized by Beijing Tsingke Biotechnology Co., Ltd. (U6 RT primer: […] ATG (SEQ ID NO: 21); HJT-sRNA-m7 RT stem-loop primer: […] AA (SEQ ID NO: 22)).
Both the forward and reverse primers of the amplification reaction were designed and synthesized by Beijing Tsingke Biotechnology Co., Ltd. (U6 F Primer: […] (SEQ ID NO: 23), U6 R Primer: […] (SEQ ID NO: 24), HJT-sRNA-m7 F Primer: […] (SEQ ID NO: 25), HJT-sRNA-m7 R Primer: […] (SEQ ID NO: 26)).
3) The relative expression level was calculated by 2-ΔCt method.
3.1.3 After co-incubation with cells for 12-24 hours, the cells were washed twice with PBS. The cells were harvested with TRIzol lysis buffer (purchased from Sigma-Aldrich), and total RNA was extracted.

A549 cells [4] = assay: Confocal fluorescence microscopy of nucleic acid delivered by lipid in cells; type: cell-based, human; conditions: 4 μl lipid, boiling method; 6 hours of co-incubation
Procedure: Experimental materials: A549 cells (purchased from the Cell Center of the Chinese Academy of Medical Sciences), PGY-sRNA-6-Cy3 (purchased from Ribobio Biotechnology Co., Ltd.), lipid No. 41, Zeiss LSM780 (purchased from Zeiss, Germany), Alexa Fluor® 488 phalloidin (purchased from Invitrogen, USA), DAPI (purchased from Invitrogen, USA), paraformaldehyde (purchased from sigma, USA).
(§6) Experimental methods: PGY-sRNA-6-FAM was dissolved in 100 μl water, mixed with 4 μl lipid, and prepared by the boiling method. Then the mixture was dropped into A549 cells, and after 6 hours of co-incubation, the samples were washed three times with PBS, fixed with 4% paraformaldehyde, washed three times with PBS, stained with Alexa Fluor® 488 phalloidin for 30 min, washed 3 times with PBS, and stained with DAPI for 5 min, washed with PBS, and then sealed.
as §6, with “method:” for “methods:”, “water, and” for “water,”, “by” for “by the”, “Then,” for “Then”, “PBS washed,” for “washed with PBS,”

[5] = boiling (heating) method, RNA 100 nM, 2.5 μL single lipid, 12 hours
[6] = boiling (heating) method, RNA 100 nM, 12 hours (No. 37: 3 hours)
[7] = reverse evaporation method, 6 hours (No. 39: 6 hours, 12 hours)

Row | SMILES | entry of single-stranded small RNA into mouse blood (RT-qPCR) [1] | delivery of double-stranded HJT-sRNA-m7 by single lipid (real-time PCR) (A549 cell; [5]) | delivery of single-stranded HJT-sRNA-m7 by single lipid (real-time PCR) (A549 cell; [6]) | efficiency in delivering PGY-sRNA-6 single-stranded RNA (flow cytometry) (A549 cells [2]; PGY-sRNA-6-FAM, 4 μl lipid, 6 hours of co-incubation) [%] | efficiency of nucleic acid delivery by flow cytometry, in words (A549 cells [2]; PGY-sRNA-6-FAM, 6 hours) | delivery of HJT-sRNA-m7 dsRNA (ddPCR) (A549 cells [3]; boiling method, 6 hours) | delivery of HJT-sRNA-m7 dsRNA (ddPCR) (A549 cells [3]; [7]) | amount of HJT-sRNA-m7 that entered the cells (RT-qPCR) (MRC-5 cell; Example 2-1, FIG. 33, double-stranded 100 nM, boiling method 100° C. 30 min, 24 hours) | delivery of double-stranded HJT-sRNA-m7 by single lipid (real-time PCR) (MRC-5 cell; boiling (heating) method, RNA 100 nM) | delivery of single-stranded HJT-sRNA-m7 by single lipid (real-time PCR) (MRC-5 cell; [6]) | entry of PGY-sRNA-6-Cy3 observed under the confocal microscopy (A549 cells [4]) | delivery effect relative to RNAiMAX (real-time PCR) (A549 cell; double-stranded HJT-sRNA-m7 100 nM, boiling method, 12 hours, FIG. 96) | delivery of double-stranded HJT-sRNA-m7 by single lipid (real-time PCR) (A549 cell; reverse evaporation method, RNA 100 nM, 12 hours) | efficiency of delivering PGY-sRNA-6 single-stranded RNA relative to RNAiMAX (flow cytometry) (A549 cells [2]; 6 hours, FIG. 97)
1 | CCCCCC/C=C\CCCCCCCC(=O)O[C@H](COC(=O)CCCCCCCCCCCCCCC)COP(=O)(O)OCCN [No. 38, (2-aminoethoxy)[(2R)-2-[(9Z)-hexadec-9-enoyloxy]-3-(hexadecanoyloxy)propoxy]phosphinic acid] | could effectively deliver sRNA single-stranded nucleic acid into mouse blood via oral administration; also recorded: the delivery effect was better than POPC and Lipofectamine RNAiMAX | delivered double-stranded RNA into A549 and MRC-5 cells | the efficiency of delivery was much higher than that of RNAiMAX | 72.5 | close to that of the positive control RNAiMAX | could effectively deliver HJT-sRNA-m7 dsRNA into A549 cells | could effectively deliver HJT-sRNA-m7 dsRNA into A549 cells | effectively delivered nucleic acids into MRC-5 cells, showing an effect close to the transfection reagent RNAiMAX | delivered double-stranded RNA into A549 and MRC-5 cells; also recorded: about twice that of RNAiMAX | the efficiency of delivery was much higher than that of RNAiMAX | could effectively deliver double-stranded nucleic acid into A549 cells | – | – | –
2 | CCCCCC/C=C\CCCCCCCCCC(=O)O[C@H](COC(=O)CCCCCCC/C=C\CCCCCC)COP(=O)(O)OCCN [No. 39, (2-aminoethoxy)[(2R)-3-[(9Z)-hexadec-9-enoyloxy]-2-[(11Z)-octadec-11-enoyloxy]propoxy] phosphinic acid] | – | – | – | – | – | – | could effectively deliver HJT-sRNA-m7 dsRNA into A549 cells | – | – | – | – | – | – | –
3 | CCCCCCCC/C=C\CCCCCCCCCCCCCC(=O)O[C@H](COC(=O)CCCCCCCCCCCCCC)COP(=O)(O)OCCN [No. 64, 1-pentadecanoyl-2-nervonoyl-sn-glycero-3-phosphoethanolamine] | could effectively deliver sRNA single-stranded nucleic acid into mouse blood via oral administration; also recorded: the delivery effect was better than POPC and Lipofectamine RNAiMAX | delivered HJT-sRNA-m7 double-stranded RNA into A549 cells | – | – | – | – | – | – | – | – | could effectively deliver single-stranded RNA into A549 cells | about 3 times that of RNAiMAX | delivered HJT-sRNA-m7 double-stranded RNA into A549 cells | ½

From patent publication US20210108198A1, “APPLICATION OF COMPOUND OR TRADITIONAL CHINESE MEDICINE EXTRACT IN PREPARATION OF NUCLEIC ACID DELIVERY AGENT AND RELATED PRODUCTS THEREOF” (INSTITUTE OF BASIC MEDICAL SCIENCES CHINESE ACADEMY OF …, priority 2017, published 2021)
